The values below are quoted from earlier work in patent publication US10471156B2, “Pharmaceutical composition comprising amorphous lenalidomide” (SYNTHON B.V., priority 2014, dated 2019).

For `Nc1cccc2c1CN(C1CCC(=O)NC1=O)C2=O` (racemic) [Lenalidomide, (RS)-3-(4-Amino-1-oxo 1,3-dihydro-2H-isoindol-2-yl)piperidine-2,6-dione], the solubility in water result is given as “slightly soluble”.
Consider 2-hydroxypropyl-β-cyclodextrin, for which the aqueous solubility result (water) is “exceeding 600 mg/ml”.
